This note sets out measurements from article PMC7717699, “Tuning the activity of iminosugars: novel N-alkylated deoxynojirimycin derivatives as strong BuChE inhibitors” (Journal of Enzyme Inhibition and Medicinal Chemistry, 2020).

Holding throughout (format): biochemical
Test [1] has as its target T1, β-galactosidase (Aspergillus Oryzae) (Aspergillus oryzae, UniProt Q2UCU3).
T1 construct: purchased
T1 sequence (Q2UCU3 19-1005): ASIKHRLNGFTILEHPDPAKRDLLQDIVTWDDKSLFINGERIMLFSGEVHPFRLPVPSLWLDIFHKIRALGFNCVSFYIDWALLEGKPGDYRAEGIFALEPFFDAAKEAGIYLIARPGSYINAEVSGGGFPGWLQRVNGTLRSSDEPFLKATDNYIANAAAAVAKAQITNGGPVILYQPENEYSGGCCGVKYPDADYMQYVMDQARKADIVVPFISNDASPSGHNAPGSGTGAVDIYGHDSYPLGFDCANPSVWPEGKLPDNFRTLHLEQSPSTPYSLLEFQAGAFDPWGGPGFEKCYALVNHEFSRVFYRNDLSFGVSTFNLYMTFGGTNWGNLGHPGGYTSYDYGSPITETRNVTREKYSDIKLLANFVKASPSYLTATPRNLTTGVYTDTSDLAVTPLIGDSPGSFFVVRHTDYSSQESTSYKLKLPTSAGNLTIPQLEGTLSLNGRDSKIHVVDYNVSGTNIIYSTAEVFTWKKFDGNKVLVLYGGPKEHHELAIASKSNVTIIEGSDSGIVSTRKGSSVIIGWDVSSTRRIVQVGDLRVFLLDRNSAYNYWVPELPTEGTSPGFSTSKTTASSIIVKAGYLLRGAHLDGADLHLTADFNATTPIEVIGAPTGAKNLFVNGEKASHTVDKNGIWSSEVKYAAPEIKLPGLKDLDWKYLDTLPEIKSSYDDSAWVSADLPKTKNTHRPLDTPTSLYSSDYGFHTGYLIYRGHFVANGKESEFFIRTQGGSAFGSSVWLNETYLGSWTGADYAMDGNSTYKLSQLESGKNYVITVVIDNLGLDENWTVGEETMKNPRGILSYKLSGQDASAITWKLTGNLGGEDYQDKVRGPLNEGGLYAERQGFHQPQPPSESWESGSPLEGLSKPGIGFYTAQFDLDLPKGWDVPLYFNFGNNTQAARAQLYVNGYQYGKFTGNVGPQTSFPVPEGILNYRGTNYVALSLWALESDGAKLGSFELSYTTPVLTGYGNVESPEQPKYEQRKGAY
The test is described as follows: β-Galactosidase (A. oryzae) inhibition. As for the experimental part:
(§1) For both families of enzymes used herein (glycosidases and cholinesterases), stock solutions of the inhibitors were prepared in DMSO; DMSO content was kept at 5% (V/V) for glycosidases and 1.25% (V/V) for cholinesterases. Enzymes were properly dissolved in water in a concentration in which the rate of the reaction when using [S] = 4 × KM is in the range 0.12–0.15 Abs/min. In both kinds of enzymes, an initial screening at 100 µM inhibitor concentration was performed, using the following substrate concentrations: [S] = 0.25 mM for α-glucosidase (Saccharomyces cerevisiae), 4.0 mM for β-glucosidase (almonds), 0.60 mM for α-galactosidase (green coffee beans), 0.51 mM for β-galactosidase (Escherichia coli), 1.5 mM for β-galactosidase (Aspergillus Oryzae), 0.12 mM for AChE (Electrophorus electricus), 0.11 mM for BuChE (equine serum). […] Each assay was run in duplicate.
(§2) Glycosidase assays were accomplished using the methodology reported by Bols and co-workers[30]. Each set of experiments is prepared in PS cuvettes using 0.1 M phosphate buffer (pH 6.8) and the corresponding o- or p-nitrophenyl glycopyranosides as substrates. Reactions were monitored at 25 °C by following the formation of the corresponding nitrophenolates at 400 nm (glucosidases and α-galactosidase) or 420 nm (β-galactosidases) over a time of 125 s.
(§3) Assessment of the inhibitory capacity against glycosidases was accomplished using the methodology reported by Bols and co-workers[30]. p-Nitrophenyl glycosides (o- for β-galactosidases) were used as model substrates, and the release of the corresponding p-nitrophenolates at pH 6.8 was monitored spectrophotometrically (λmax = 400 or 420 nm for p- or o-nitrophenolates, respectively).

The target of test [2] is T2, α-glucosidase (Saccharomyces cerevisiae) (Saccharomyces cerevisiae, UniProt P53341).
T2 construct: purchased
The test is described as follows: α-Glucosidase inhibition (p-nitrophenyl glycoside substrate). As for the experimental part: as §1, §2
(Dixon plot) and [S]/v vs. [I]. For the calculation of kinetic parameters (KM, Vmax) a nonlinear regression analysis (least squares fit, GraphPad Prism 8.01) was used. Data are expressed as the mean ± SD.
as §3

The subject of test [3] is β-glucosidase (almonds). The test is described as follows: β-Glucosidase inhibition (p-nitrophenyl glycoside substrate). Conditions: for Mode of inhibition β-Glucosidase: Cornish–Bowden method; for IC50: almond enzyme, pH 6.8, 25 °C; for Ki: binding to free enzyme, read-out: Kia β-Glucosidase. As to the method: as §1, §2
(§4) For strong inhibitors, the mode of inhibition was determined using the Cornish–Bowden method, which involves the use of two different plots: 1/v vs. [I] (Dixon plot) and [S]/v vs. [I]. For the calculation of kinetic parameters (KM, Vmax) a nonlinear regression analysis (least squares fit, GraphPad Prism 8.01) was used. Data are expressed as the mean ± SD.
as §3

Test [4] concerns the target T3, β-galactosidase (Escherichia coli) (Escherichia coli, UniProt P00722).
T3 construct: purchased
The test is described as follows: β-Galactosidase (E. coli) inhibition. As for the experimental part: as §1, §2, §3

Test [5] deals with T4, α-galactosidase (green coffee beans) (Coffea arabica, UniProt Q42656).
T4 construct: purchased; host or cells: green coffee beans
Briefly: α-Galactosidase inhibition. As to the method:
as §1, with “Enzymes” for “For both families of enzymes used herein (glycosidases and cholinesterases), stock solutions of the inhibitors were prepared in DMSO; DMSO content was kept at 5% (V/V) for glycosidases and 1.25% (V/V) for cholinesterases. Enzymes”
Glycosidase assays were accomplished using the methodology reported by Bols and co-workers[30]. Each set of experiments is prepared in PS cuvettes using 0.1 M phosphate buffer (pH 6.8) and the corresponding o- or p-nitrophenyl glycopyranosides as substrates.
as §3

The target in test [6] is AChE (Electrophorus electricus) (Electrophorus electricus, UniProt O42275). Briefly: AChE inhibition, Ellman's assay. Conditions: for Mode of inhibition AChE: Cornish–Bowden method. As to the method: as §1
(§5) For cholinesterases, minor modifications on Ellman’s assay[31] were performed. The activity was measured in PS cuvettes containing […] (pH 8.0), 0.88 mM DTNB, and substrate (acetyl- and butyryl-thiocholine iodides for AChE and BuChE, respectively), The formation of the chromophore was monitored at 405 nm over a time of 125 s.
as §4
(§6) Derivatives 11 and 12 were tested also against AChE (Electrophorus electricus) and BuChE (equine serum), as recognised models for human cholinesterases due to their close structural resemblance. For that purpose, Ellman’s colorimetric assay was used; this is an indirect test in which acetyl and butyryl thiocholine iodides are used as model substrates, which upon interaction with the enzyme release thiocholine, which in turn reacts with the chromogen reagent 5,5′-dithiobis(2-nitrobenzoic acid (DTNB) to give 2-nitro-5-mercaptobenzoate (at pH 8.0). The monitoring of the latter at 405 nm furnishes the kinetic parameters.

Test [7] has as its target T5, BuChE (equine serum) (Equus caballus, UniProt P81908).
T5 construct: 0.11 mM for BuChE (equine serum); from tissue; host or cells: equine serum
The test is described as follows: BuChE inhibition, Ellman's assay. The settings on record: for Mode of inhibition BuChE: Cornish–Bowden method. As to the method: as §1, §5, §4, §6

[8] abbreviates: Electrophorus electricus, pH 8.0, read-out: IC50 AChE.
[9] abbreviates: equine serum, pH 8.0, read-out: IC50 BuChE.
[10] abbreviates: binding to enzyme-substrate complex, read-out: Kib AChE.
Setting [11] is: binding to free enzyme, read-out: Kia AChE.
Where [12] appears, read: binding to enzyme-substrate complex, read-out: Kib BuChE.
The mark [13] stands for this setting: binding to free enzyme, read-out: Kia BuChE.

The structures appear in SMILES notation. Read-outs that look alike come from different tables or passages of the source. Some results are limits rather than exact numbers.

T3 sequence (P00722 2-1024 limits assumed): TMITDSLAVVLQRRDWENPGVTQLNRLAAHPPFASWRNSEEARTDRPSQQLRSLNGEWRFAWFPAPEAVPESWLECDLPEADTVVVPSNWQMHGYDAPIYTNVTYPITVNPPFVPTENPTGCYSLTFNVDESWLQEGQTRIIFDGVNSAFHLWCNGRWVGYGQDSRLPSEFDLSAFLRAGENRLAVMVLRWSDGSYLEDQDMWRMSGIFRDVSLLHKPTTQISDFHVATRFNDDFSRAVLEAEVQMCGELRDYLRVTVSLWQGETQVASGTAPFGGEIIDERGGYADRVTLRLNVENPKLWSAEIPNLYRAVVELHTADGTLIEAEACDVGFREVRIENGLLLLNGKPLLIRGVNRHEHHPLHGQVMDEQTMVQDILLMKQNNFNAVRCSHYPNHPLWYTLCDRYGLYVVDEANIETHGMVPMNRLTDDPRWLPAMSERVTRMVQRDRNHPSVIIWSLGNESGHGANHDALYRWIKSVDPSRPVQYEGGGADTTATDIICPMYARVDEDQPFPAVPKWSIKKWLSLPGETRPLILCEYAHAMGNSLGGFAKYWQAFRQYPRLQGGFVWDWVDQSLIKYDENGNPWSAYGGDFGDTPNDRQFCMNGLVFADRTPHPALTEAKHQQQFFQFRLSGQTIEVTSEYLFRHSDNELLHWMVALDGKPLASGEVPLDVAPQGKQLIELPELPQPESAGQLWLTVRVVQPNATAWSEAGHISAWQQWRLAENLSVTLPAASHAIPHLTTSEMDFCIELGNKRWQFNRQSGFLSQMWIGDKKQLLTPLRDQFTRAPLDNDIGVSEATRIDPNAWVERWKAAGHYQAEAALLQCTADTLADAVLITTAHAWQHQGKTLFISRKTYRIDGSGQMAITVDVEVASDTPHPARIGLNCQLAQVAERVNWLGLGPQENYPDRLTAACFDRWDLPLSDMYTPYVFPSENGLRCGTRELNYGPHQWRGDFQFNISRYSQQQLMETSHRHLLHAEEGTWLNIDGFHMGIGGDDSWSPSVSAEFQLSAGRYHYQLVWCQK
T2 sequence (P53341 whole entry): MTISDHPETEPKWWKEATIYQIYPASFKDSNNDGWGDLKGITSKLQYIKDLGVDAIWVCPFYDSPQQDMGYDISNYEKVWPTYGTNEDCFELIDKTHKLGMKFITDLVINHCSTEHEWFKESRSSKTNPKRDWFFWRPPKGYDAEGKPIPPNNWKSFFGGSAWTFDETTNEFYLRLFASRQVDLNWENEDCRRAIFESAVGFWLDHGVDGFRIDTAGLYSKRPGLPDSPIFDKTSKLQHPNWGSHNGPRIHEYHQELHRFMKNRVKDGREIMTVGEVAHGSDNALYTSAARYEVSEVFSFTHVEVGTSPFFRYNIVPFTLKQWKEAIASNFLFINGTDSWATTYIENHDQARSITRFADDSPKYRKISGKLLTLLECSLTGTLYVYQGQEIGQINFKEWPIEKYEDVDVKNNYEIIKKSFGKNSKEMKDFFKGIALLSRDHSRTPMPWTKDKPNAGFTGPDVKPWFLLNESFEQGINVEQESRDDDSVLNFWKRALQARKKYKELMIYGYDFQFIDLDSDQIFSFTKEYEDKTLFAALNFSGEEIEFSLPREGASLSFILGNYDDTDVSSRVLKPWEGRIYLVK
T5 sequence (P81908 whole entry): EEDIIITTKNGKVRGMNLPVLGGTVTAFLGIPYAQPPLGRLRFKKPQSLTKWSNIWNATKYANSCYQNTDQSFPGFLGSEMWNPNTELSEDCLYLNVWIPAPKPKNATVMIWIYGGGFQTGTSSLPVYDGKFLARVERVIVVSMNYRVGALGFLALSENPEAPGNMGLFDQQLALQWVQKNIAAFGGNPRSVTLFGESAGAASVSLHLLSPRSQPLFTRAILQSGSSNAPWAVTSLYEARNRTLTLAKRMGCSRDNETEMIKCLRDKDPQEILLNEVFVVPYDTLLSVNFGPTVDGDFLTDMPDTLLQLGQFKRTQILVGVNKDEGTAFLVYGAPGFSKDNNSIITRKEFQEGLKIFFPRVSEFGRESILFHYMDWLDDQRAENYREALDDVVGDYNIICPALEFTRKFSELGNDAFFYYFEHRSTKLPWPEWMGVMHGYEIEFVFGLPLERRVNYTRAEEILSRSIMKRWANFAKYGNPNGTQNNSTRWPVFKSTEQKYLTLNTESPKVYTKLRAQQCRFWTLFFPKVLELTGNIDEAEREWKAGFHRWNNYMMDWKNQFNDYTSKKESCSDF
Sequence of AChE (Electrophorus electricus) (O42275 24-633): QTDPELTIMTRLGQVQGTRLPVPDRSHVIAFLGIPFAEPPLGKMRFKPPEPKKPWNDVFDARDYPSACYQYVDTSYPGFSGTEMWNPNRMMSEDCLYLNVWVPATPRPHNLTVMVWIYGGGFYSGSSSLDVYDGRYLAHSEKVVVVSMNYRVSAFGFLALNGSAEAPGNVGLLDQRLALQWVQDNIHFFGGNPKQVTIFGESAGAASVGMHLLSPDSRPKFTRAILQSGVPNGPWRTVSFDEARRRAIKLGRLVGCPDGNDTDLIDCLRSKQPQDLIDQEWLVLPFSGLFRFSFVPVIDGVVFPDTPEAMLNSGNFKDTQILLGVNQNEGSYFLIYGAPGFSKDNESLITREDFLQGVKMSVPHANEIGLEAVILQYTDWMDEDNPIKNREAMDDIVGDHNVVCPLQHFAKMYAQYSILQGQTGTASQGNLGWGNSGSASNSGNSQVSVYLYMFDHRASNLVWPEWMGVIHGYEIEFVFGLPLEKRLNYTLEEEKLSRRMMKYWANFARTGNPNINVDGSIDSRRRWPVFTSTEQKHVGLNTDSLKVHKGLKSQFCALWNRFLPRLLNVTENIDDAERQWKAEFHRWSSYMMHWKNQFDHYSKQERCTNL
T4 sequence (Q42656 16-378): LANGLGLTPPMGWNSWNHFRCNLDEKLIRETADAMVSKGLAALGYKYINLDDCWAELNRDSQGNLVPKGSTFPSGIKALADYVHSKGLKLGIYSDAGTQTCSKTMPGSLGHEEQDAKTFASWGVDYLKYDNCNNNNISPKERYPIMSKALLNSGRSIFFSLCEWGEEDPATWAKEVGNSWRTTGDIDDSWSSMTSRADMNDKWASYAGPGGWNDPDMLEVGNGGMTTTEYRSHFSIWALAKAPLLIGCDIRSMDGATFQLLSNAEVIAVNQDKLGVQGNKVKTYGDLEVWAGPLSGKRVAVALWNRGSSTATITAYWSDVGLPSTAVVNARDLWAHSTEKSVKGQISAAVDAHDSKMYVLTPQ

For the compound `OC[C@@H]1[C@@H](O)[C@H](O)[C@@H](O)CN1CCCCCOCCc1ccccc1` [Compound 12a], the 50% inhibitory concentration (IC50) is more than 100 µM in test [1]; more than 100 µM in test [2]; 28 µM in test [3]; more than 100 µM in test [4]; more than 100 µM in test [5]; more than 100 µM in test [6] (setting [8]). In addition, in test [7] (setting [9]), the IC50 was more than 100 µM. Moreover, in test [3], the “Mode of inhibition β-Glucosidase” value is “Competitive”. For the same compound, in test [3], the Ki is 23 ± 4 µM.

For `OC[C@H]1NC[C@H](O)[C@@H](O)[C@@H]1O` [Compound 1-DNJ, 1-deoxynojirimycin, reference compound], the IC50 is more than 100 µM in test [1] (Asp. Oryzae enzyme, read-out: IC50 β-Galactosidase (Asp. Oryzae)); […] in test [3]; more than 100 µM in test [4] (E. coli enzyme, read-out: IC50 β-Galactosidase (E. coli)); more than 100 µM in test [6]; 10 µM in test [7]. Moreover, the Ki in test [7] amounted to 16 ± 3 µM. In addition, in test [7], the “Mode of inhibition BuChE” value was “Non-competitive”.

Regarding `OC[C@@H]1[C@@H](O)[C@H](O)[C@@H](O)CN1CCCCCCOCCc1ccccc1` [Compound 11a], the IC50 in test [1] is more than 100 µM; in test [2], 126 µM; in test [3] it was 4.6 µM; in test [4] it was more than 100 µM; in test [5], more than 100 µM; in test [6] (setting [8]) it was more than 100 µM. The IC50 in test [7] (setting [9]) is more than 100 µM. The figures for the Ki in test [2] and in test [3] were 93 µM and 6.5 µM, respectively. In addition, the “Mode of inhibition α-Glucosidase” value in test [2] (Cornish–Bowden method) is “Competitive”. In addition, the “Mode of inhibition β-Glucosidase” value in test [3] is listed as “Competitive”.

Consider `OC[C@@H]1[C@@H](O)[C@H](O)[C@@H](O)CN1CCCCCCOCCc1ccc2c(c1)OCO2` [Compound 11g], for which the IC50 was more than 100 µM in test [1]; more than 100 µM in test [2]; 8.4 µM in test [3]; more than 100 µM in test [4]; more than 100 µM in test [5]; 48 µM in test [6] (setting [8]). In addition, the IC50 in test [7] (setting [9]) was determined as 7.3 µM. The “Mode of inhibition β-Glucosidase” value in test [3] was “Competitive”. For the same compound, the Ki in test [3] was 9 µM; in test [6] (setting [10]), 43 µM; in test [6] (setting [11]), 56 µM; in test [7] (setting [12]), 9.2 ± 1.9 µM; in test [7] (setting [13]), 9.2 ± 1.9 µM. Moreover, the “Mode of inhibition AChE” value in test [6] is “Mixed”. Further, the “Mode of inhibition BuChE” value in test [7] is “Non-competitive”.

Take `OC[C@@H]1[C@@H](O)[C@H](O)[C@@H](O)CN1CCCCCCOCCc1ccc(O)cc1` [Compound 11b]: the IC50 is more than 100 µM in test [1]; more than 100 µM in test [2]; 12 µM in test [3]; more than 100 µM in test [4]; more than 100 µM in test [5]; more than 100 µM in test [6] (setting [8]). Further, in test [7] (setting [9]), the IC50 is more than 100 µM. The “Mode of inhibition β-Glucosidase” value in test [3] is given as “Competitive”. The Ki in test [3] amounted to 17 µM.

Consider `COc1cc(CCOCCCCCCN2C[C@H](O)[C@@H](O)[C@H](O)[C@H]2CO)ccc1O` [Compound 11f], for which the IC50 in test [1] is more than 100 µM; in test [2], more than 100 µM; in test [3] it was 8.2 µM; in test [4], more than 100 µM; in test [5] it was more than 100 µM; in test [6] (setting [8]), 7.3 µM. For the same compound, in test [7] (setting [9]), the IC50 is 1.8 µM. The “Mode of inhibition β-Glucosidase” value in test [3] was “Competitive”. In addition, the Ki in test [3] is 9.6 µM; in test [6] (setting [10]) it was 17 ± 5 µM; in test [6] (setting [11]), 17 ± 5 µM; in test [7] (setting [12]), 5 µM; in test [7] (setting [13]), 1.5 µM. The “Mode of inhibition AChE” value in test [6] is reported as “Non-competitive”. Besides, the “Mode of inhibition BuChE” value in test [7] is listed as “Mixed”.

Regarding `COc1ccc(CCOCCCCCCN2C[C@H](O)[C@@H](O)[C@H](O)[C@H]2CO)cc1OC` [Compound 11e], the IC50 was more than 100 µM in test [1]; more than 100 µM in test [2]; 14 µM in test [3]; more than 100 µM in test [4]; more than 100 µM in test [5]; 5.8 µM in test [6] (setting [8]). Further, the IC50 in test [7] (setting [9]) came to 1.9 µM. For the same compound, the “Mode of inhibition β-Glucosidase” value in test [3] is reported as “Competitive”. The Ki was found to be 15 µM in test [3]; 5.2 µM in test [6] (setting [10]); 9.3 µM in test [6] (setting [11]); 4.5 µM in test [7] (setting [12]); 1.4 µM in test [7] (setting [13]). Further, the “Mode of inhibition AChE” value in test [6] is reported as “mixed inhibitor”. Moreover, the “Mode of inhibition BuChE” value in test [7] is recorded as “mixed inhibition”.

Regarding `COc1ccc(CCOCCCCCCN2C[C@H](O)[C@@H](O)[C@H](O)[C@H]2CO)cc1` [Compound 11c], the IC50 in test [1] is more than 100 µM; in test [2] it was more than 100 µM; in test [3] it was 6 µM; in test [4], more than 100 µM; in test [5], more than 100 µM; in test [6] (setting [8]), more than 100 µM. In test [7] (setting [9]), the IC50 is more than 100 µM. In addition, the “Mode of inhibition β-Glucosidase” value in test [3] was “Competitive”. In addition, the Ki in test [3] worked out at 4.5 µM.

Regarding `OC[C@@H]1[C@@H](O)[C@H](O)[C@@H](O)CN1CCCCCOCCc1ccc(O)c(O)c1` [Compound 12d], the IC50 in test [2] was more than 100 µM; in test [3], more than 50 µM; in test [6] (setting [8]), more than 100 µM; in test [7] (setting [9]), more than 100 µM.
